In a melting point compilation (Tetko et al.) one finds melting point data, which are given here for 113 molecules.

The molecule `CN1CCC23c4c5ccc(OCCN6CCOCC6)c4OC2C(O)C=CC3C1C5` (stereo not drawn) registered a melting point of 91 °C. `C=C(C)CCCCCCCCCCCCCCCC` returned a melting point of 14 °C.

Take `O=C(O)C1c2ccccc2Oc2ccccc21`: the melting point was 217 °C.

As to `N#CCCn1ccnc1-c1ccccc1`, the melting point lay in the range of 99.5 to 102 °C. Next, `COc1ccnc(-c2cc(OC)ccn2)c1`: 169 to 174 °C.

For `Cc1n[nH]cc1-c1ccccc1`, the melting point stood at 142 °C. Take `O=[N+]([O-])c1ccc2c3c(ccc(C(Cl)=Cc4ccccc4)c13)CC2`: the melting point turned out to be 161 °C.

With `COc1ccc(C=CC(=O)O)c(Cl)c1OC`, the melting point fell in the range of 217 to 218 °C.

The molecule `Cc1nc2ccc(C(=O)O)cc2nc1C` had a melting point of 230 °C. In the case of `O=C(CCl)Nc1ccc(Oc2ccccc2)cc1` it was 104 to 106 °C; in that of `Cc1cc(C)c(O)cc1C`, 72 °C.

`O=C(NC(=S)c1ccc[nH]1)Nc1ccccc1` gave a melting point of 205 to 208 °C.

Take `COc1ccc(C2(C(=O)O)CCCC2)cc1`: the melting point was in the range of 151 to 156 °C. Consider `COc1ccc2c(c1C)CC2=O`, for which the melting point lay within 72 to 73 °C. `CSc1nccc(-c2ccc(S(=O)(=O)Cl)s2)n1` had a melting point of 129 to 131 °C. In the case of `O=P(O)(O)OCC(O)CO` (stereo not drawn) it was -25 °C; in that of `N=C(N)NC(N)=O`, 105 °C. In the case of `O=C(O)Cc1csc2ccccc12` it was 110 °C; in that of `Nc1ncnc2c1ncn2C1OC(CO)C(OP(=O)(O)O)C1O` (stereo not drawn), 197 °C; in that of `CCC1=CN(S(=O)(=O)c2ccc(C)cc2)C[C@@H]1CCc1cccc(C(=O)OC)c1`, 67.5 °C.

For `COc1cc([N+](=O)[O-])ccc1N1CCCC1`, the melting point amounted to 60 °C. `CCCCCCNC(=S)NCCCCCC` came in with a melting point of 39 to 41 °C. Molecule `COc1nn(CSP(=S)(OC)OC)c(=O)s1` had a melting point of 39.5 °C.

Take `O=C(Cl)c1cccc(F)c1`: the melting point was -30 °C.

In the case of `COc1cc(C)cc(OC)c1OC`, the melting point is 36 °C. In turn, `CC1(c2ccccc2)C(=O)NC(=O)NC1=O` had a melting point of 224 °C. Regarding `O=C1N[C@H](Cc2ccccc2)CO1`, the melting point lay within 87 to 90 °C.

Consider `Cc1ccc(C=NC2=NC(C(F)(F)F)N=N2)cc1` (stereo not drawn), for which the melting point turned out to be 208 °C. In turn, `Fc1cc(Br)cc(Br)c1Br` registered a melting point of 30 to 34 °C. With `CN1CCN(c2ncc(Br)c(OCc3ccccc3)n2)CC1`, the melting point was 63 °C. `Nc1nc(-c2cccc3ccccc23)cs1` showed a melting point of 157 °C.

Molecule `CSC(S)=Nc1ccc(Br)cc1` yielded a melting point of 133 to 134 °C. Regarding `O=C(OC1C(=O)OC(=O)C1OC(=O)c1ccccc1)c1ccccc1` (stereo not drawn), the melting point was 174 °C. `Clc1cccc2cccnc12` had a melting point of -20 °C. `Clc1ccc(O[Si]23OCCN(CCO2)CCO3)cc1` had a melting point of 166 °C.

For the molecule `CC(=NO)C(=O)c1ccccc1`, the melting point came out at 114 °C. In the case of `c1ccc2[nH]ncc2c1` it was 148 °C. On to `COC(=O)c1csc(C=O)c1`, for which the melting point was determined as 115 °C. Turning to `Cc1c(F)ccc(C#N)c1F`, the melting point came to 44 °C. The molecule `CCCOCOCCC` yielded a melting point of -97.3 °C. Regarding `O=[N+]([O-])OC(CO)CO`, the melting point is 54 °C. `FC(F)(F)C(Cl)Br` (stereo not drawn) displayed a melting point of -118 °C. The molecule `CSc1scc2c1C(=NO)CC(C)(C)C2` showed a melting point of 151 to 154 °C. The molecule `Cn1ccc2c(C(=O)O)cccc21` displayed a melting point of 243 to 245 °C.

In the case of `Cc1cc(C(c2ccc(C)o2)c2ccc(C)o2)c(O)c([N+](=O)[O-])c1`, the melting point came to 93 °C. In the case of `O=C(N[C@@H](Cc1ccccc1)C(=O)Oc1c(F)c(F)c(F)c(F)c1F)OCC1c2ccccc2-c2ccccc21` it was 151 to 152 °C; in that of `COP(=O)(OC)OC`, -46 °C; in that of `Cc1cc(C)c(S(=O)(=O)n2ccnc2)c(C)c1`, 95 to 99 °C.

`Clc1ncccc1I`: the melting point amounted to 95 °C. In turn, `CCOc1ccc(-c2nnc3n2NC(c2ccc(OC)cc2)S3)cc1` (stereo not drawn) had a melting point of 198 to 200 °C. Molecule `c1ccc(COc2ccc3cc[nH]c3c2)cc1` yielded a melting point of 115 °C. In the case of `O=C1NCN(c2ccccc2)C12CCNCC2` it was 183 to 185 °C; in that of `CCC(C)OC` (stereo not drawn), -100 °C.

In turn, `CC(C)(C#N)C(C)(C)C#N` yielded a melting point of 170 °C. `CCC(C)/N=C(\C)c1c(O)c2ccccc2n(-c2ccccc2)c1=O` (stereo not drawn) showed a melting point of 193 to 194 °C.

On to `COc1ccc2c(c1)CCc1ccc3c(c1-2)c(=O)n(-c1ccccc1)n3C`, for which the melting point was 162 °C. `CCN(CC)C(=O)CSc1ccc(Cl)nn1` returned a melting point of 98 °C. In turn, `CCOC(=O)c1ccc(C#N)cc1` returned a melting point of 54 °C. Consider `N#CCCCCCC#N`, for which the melting point is -31.4 °C. On to `CCCc1c(C)nc(NC(=O)NS(=O)(=O)c2cccs2)nc1O`, for which the melting point lay in the range of 210 to 212 °C. In turn, `O=C1c2cccc3cccc(c23)C(=O)N1O` returned a melting point of 245 °C. Consider `CCOC(=O)ON=C(C(=O)c1ccccc1)c1ccccc1`, for which the melting point was 73 to 75 °C. The molecule `CC(=O)c1ccc(F)cc1Br` returned a melting point of 48 to 50 °C. Next, `CC(=O)c1c(F)ccc(F)c1C(=O)O`: 86 °C; `CCOC(=O)Cc1ccc(N)cc1`: 48 to 50 °C; `N#CC=Cc1ccco1`: 38 °C. The molecule `Cc1ccc([N+](=O)[O-])cc1I` gave a melting point of 61 °C. Next, `CC(=O)Nc1ccc(C2=NNC(=O)CC2)cc1`: 250 to 253 °C; `O=C(O)c1cnn(-c2ccc(Cl)cc2)c1C(F)(F)F`: 137 to 138 °C; `Cc1cccc2ccc3ccccc3c12`: 53.5 °C.

Molecule `COc1ccc(C(=O)NN=C(C)c2c(O)c3ccccc3n(-c3ccccc3)c2=O)cc1` registered a melting point of 218 °C. `CN(C)c1ccc(N=c2cc(-c3ccccc3)cc(-c3ccccc3)s2)cc1`: the melting point was found to be 148 °C.

`O=C1/C(=N\O)C(c2ccc([N+](=O)[O-])cc2)=NN1c1ccccc1` had a melting point of 222 to 224 °C. In turn, `C(=C\c1nn2c(COc3ccccc3)nnc2s1)/c1ccccc1` had a melting point of 141 to 143 °C. Next, `ClC(Cl)(Br)CBr`: -26 °C; `C[Si](C)(C)O[Si](C)(C)O[Si](C)(C)O[Si](C)(C)O[Si](C)(C)O[Si](C)(C)C`: -59 °C; `CCOC(=O)CCN(Cc1ccccc1)SN(C)C(=O)ON=C(C)SC`: 47 °C. Next, `COc1ccccc1C1Nc2nc(C(F)(F)F)nn2C(N)=C1C#N` (stereo not drawn): 245 °C; `CC(=O)Oc1cn(C(C)=O)c2ccc(Br)cc12`: 124 to 128 °C; `O=Cc1ccc(-c2cccs2)cc1`: 67 to 68 °C. Consider `CCn1c(=O)c(C=C2C(=O)NN=C2c2c(O)c3ccccc3n(C)c2=O)c(O)c2ccccc21`, for which the melting point was 295 °C. `O=C(Cl)c1cc2cc(Br)ccc2s1` came in with a melting point of 99 to 102 °C.

With `CNCCOC(=O)C=C1CCC2C(C(O)CC3C(C)(C(=O)OC)CCCC23C)C1C` (stereo not drawn), the melting point was 115 °C. `COC(CCNC1=CC(=O)c2ccccc2C1=O)OC` displayed a melting point of 114 °C.

In turn, `CCCCc1ccccc1O` came in with a melting point of -20 °C.

In the case of `CCc1ccc([N+](=O)[O-])cc1`, the melting point is -12 °C. `CCCCCCCCCCC(=O)c1ccccc1` gave a melting point of 28 to 30 °C. Next, `COC1(C)CC(c2ccccc2)c2c(c3ccccc3oc2=O)O1` (stereo not drawn): 166 °C; `CCOC(C)OCC`: -100 °C; `ClCc1cc(-c2ccccc2)on1`: 48 to 49 °C. Molecule `CCOC(=O)c1csc(-c2ccc(F)cc2F)n1` returned a melting point of 50 to 52 °C.

On to `CSC(Nc1ccccc1)=C(C#N)C#N`, for which the melting point came out at 80 °C. In turn, `Cc1nnc(SCC2=C(C(=O)O)N3C(=O)C(NC(=O)Cn4cnnn4)C3SC2)s1` (stereo not drawn) gave a melting point of 198 °C.

In turn, `CC12CCC(O)CC1CCC1C2C(O)CC2(C)C1CCC2(O)C(=O)CO` (stereo not drawn) returned a melting point of 244 °C. Regarding `NC(=S)c1ccccc1Cl`, the melting point fell in the range of 68 to 70 °C. In the case of `O=[N+]([O-])c1ccccc1OCCCBr`, the melting point fell in the range of 37 to 38 °C. `CC1(C)C=[N+]([O-])C(C)(C)N1O` returned a melting point of 160 to 163 °C. `Cc1cc([N+](=O)[O-])ccc1F` had a melting point of 39 °C. `C1#CCOCc2ccccc2COCC#CCOCc2ccccc2COC1` yielded a melting point of 130 °C. In turn, `O=C(NCO)c1cccnc1` came in with a melting point of 142 °C. Next, `N#Cc1c(F)cccc1Oc1ccc(F)cc1`: 73 to 74 °C; `Cc1n[nH]c(SCC(=O)c2ccc(Cl)cc2)n1`: 185 to 188 °C. For the molecule `Cc1cc(C(=O)CC#N)c(C)o1`, the melting point fell in the range of 120 to 122 °C. Consider `OCC(O)C(O)C(O)C(O)CO` (stereo not drawn), for which the melting point was determined as 190 °C. The molecule `O=CC(F)(F)C(F)(F)C(F)(F)C(F)(F)C(F)(F)C(F)(F)C(F)(F)C(F)(F)C(F)(F)C(F)(F)F` showed a melting point of 70 to 72 °C. The molecule `Nc1ccccc1C(=O)OCc1ccccc1` gave a melting point of 76 to 78 °C. For the molecule `OCc1ccc(SC(F)(F)F)cc1`, the melting point came to 52 °C.

Consider `Nc1cc(C(F)(F)F)ccn1`, for which the melting point stood at 73 °C. The molecule `O=Cc1c(Cl)ccc([N+](=O)[O-])c1Cl` displayed a melting point of 165 to 167 °C. The molecule `CC(=O)Nc1ccc(Br)cc1C` displayed a melting point of 160 to 163 °C. `S=C(/N=N/c1ccccc1)NNc1ccccc1` returned a melting point of 168 °C.

As to `C=CCOc1ccc(NC(C)=O)cc1`, the melting point lay in the range of 90 to 92 °C. Consider `O=C(O)C=Cc1ccc(F)cc1Cl`, for which the melting point stood at 247 °C.

A word on the melting point: it is the temperature, or range, at which the solid turns liquid.
